Measurements published in patent US9290459B1, “Substituted bicyclic dihydropyrimidinones and their use as inhibitors of neutrophil elastase activity” (Boehringer Ingelheim International GmbH, priority 2013, dated 2016).
Converted amounts (≈) assume the structure as drawn. Where two headings read alike, the source gives them in different places.

Assays:
[1] = Aqueous solubility; format: physicochemical; settings: McIlvaine buffer pH 6.8, 2.5% DMSO, 24 h shaking; for solubility at 24 h: McIlvaine buffer pH 6.8 with 2.5% DMSO, pH 6.8, aqueous buffer, kinetic from dmso stock
Description: Assay for Determination of Aqueous Solubility […] After 24 h of shaking, the solutions or suspensions are filtered and analyzed by LC-UV. The amount dissolved in buffer is compared to the amount dissolved in the acetonitrile/water (1/1) solution.

[2] = Metabolic stability with human liver microsomes; format: in vitro ADME; settings: for t1/2 INVITRO: pooled human liver microsomes, 1 mg/ml protein, 1 μM test compound, 37° C., NADPH; for half-life at 1 μM: human, microsomes, pH 7.6
[3] = target: Human neutrophil elastase (Homo sapiens (Human), UniProt P08246); test: Human Neutrophil Elastase Assay; format: biochemical; settings: substrate MeOSuc-Ala-Ala-Pro-Val-AMC 250 μM, pH 7.5
Chain of Human neutrophil elastase (P08246 30-247): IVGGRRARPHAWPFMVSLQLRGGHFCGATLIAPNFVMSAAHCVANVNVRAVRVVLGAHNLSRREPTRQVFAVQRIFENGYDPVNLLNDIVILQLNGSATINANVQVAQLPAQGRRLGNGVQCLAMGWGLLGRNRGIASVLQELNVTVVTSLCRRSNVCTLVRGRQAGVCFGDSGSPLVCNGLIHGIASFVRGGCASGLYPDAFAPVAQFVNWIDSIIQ

[4] = test system: Caco-2 cells; test: Drug transport across human Caco-2 cells; format: in vitro ADME; settings: for PEAB / PEBA: Caco-2 monolayers, pH 7.2, 37° C.; for PEAB: apical-to-basal; for PEBA: basal-to-apical; for Efflux ratio: PEBA/PEAB, Caco-2
[5] = target: neutrophil elastase in human plasma (Homo sapiens (Human), UniProt P08246); test: Neutrophil elastase inhibitory activity in human plasma (zymosan-stimulated blood); format: biochemical
Chain of neutrophil elastase in human plasma (P08246 30-247): as above

[6] = test system: human hepatocytes; test: Metabolic stability with human hepatocytes; format: in vitro ADME; settings: human hepatocyte suspension, 1 μM test compound, scaled with well stirred model
Description: Assay for the Determination of Metabolic Stability with Human Hepatocytes The metabolic degradation of the test compound is assayed in a human hepatocyte suspension. Human hepatocytes (typically cryopreserved) are incubated in an appropriate buffer system (e.g. […] Samples are transferred into acetonitrile and pelleted by centrifugation (5 min) The supernatant is transferred to a new 96-deepwell plate, evaporated under nitrogen and resuspended. The decline of parent compound is analyzed by LC-MS/MS.

[7] = Drug transport across human Caco-2 cells; format: in vitro ADME; settings: human; for Papp A→B at 10 µM / Papp B→A at 10 µM: Caco-2, pH 7.2, Caco-2 monolayers, pH 7.2, 37° C.; for Papp A→B at 10 µM: apical-to-basal, read-out: PEAB; for Papp B→A at 10 µM: basal-to-apical, read-out: PEBA; for efflux ratio at 10 μM: Caco-2, pH 7.2, PEBA/PEAB, Caco-2
[8] = human neutrophil elastase, read-out: IC50
[9] = neutrophil elastase enriched human plasma from zymosan-stimulated blood, read-out: EC50

| Structure (SMILES) | CL (predicted human hepatic in vivo blood clearance) [6] [mL/min/kg] | solubility at 24 h [1] [µg/mL] | half-life at 1 μM [2] [min] | Papp A→B at 10 µM [7] [×10⁻⁶ cm/s] | Papp B→A at 10 µM [7] [×10⁻⁶ cm/s] | IC50 [3, 8] [nM] | efflux ratio at 10 μM [7] | EC50 [5, 9] [nM] | other results |
| --- | --- | --- | --- | --- | --- | --- | --- | --- | --- |
| CN1C(=O)N(c2cccc(C(F)(F)F)c2)C2=C(C(=O)CC2)C1c1ccc(C#N)cc1[S+](C)[O-] (single isomer, unassigned) [Example 30A, 4-(3-Methyl-2,5-dioxo-1-(3-(trifluoromethyl)phenyl)-2,3,4,5,6,7-hexahydro-1H-cyclopenta[d]pyrimidin-4-yl)-3-(methylsulfinyl)benzonitrile] | – | – | – | – | – | – | – | – | Aqueous solubility [1]: 0.051 mg/mL; t1/2 INVITRO [2]: >130 min; IC50 ([3]; IC50, human neutrophil elastase): 1.3 nM; PEAB [4]: 0.00000352 cm/s; PEBA [4]: 0.000039 cm/s; Efflux ratio [4]: 11.1; EC50 ([5]; EC50, neutrophil elastase enriched human plasma from zymosan-stimulated blood): 1 nM |
| CCS(=O)(=O)c1cc(C#N)ccc1C1NC(=O)N(c2cccc(C(F)(F)F)c2)C2=C1C(=O)CC2 (stereo not shown) [Example 14, 4-(2,5-Dioxo-1-(3-(trifluoromethyl)phenyl)-2,3,4,5,6,7-hexahydro-1H-cyclopenta[d]pyrimidin-4-yl)-3-(ethylsulfonyl)benzonitrile] | 4 | 45 (≈ 91.9 µM) | > 130 | – | – | 4.7 | – | – | – |
| CS(=O)(=O)c1cc(C#N)ccc1C1NC(=O)N(c2cccc(C(F)F)c2)C2=C1C(=O)CC2 (stereo not shown) [Example 15.4, 4-(1-(3-(difluoromethyl)phenyl)-2,5-dioxo-2,3,4,5,6,7-hexahydro-1H-cyclopenta[d]pyrimidin-4-yl)-3-(methylsulfonyl)benzonitrile] | 0 | 69 (≈ 151 µM) | > 130 | – | – | 9.7 | – | – | – |
| CS(=O)(=O)c1cc(C#N)ccc1[C@@H]1C2=C(CCC2=O)N(c2cccc(C(F)(F)F)c2)C(=O)N1CC#N [Example 23, (S)-4-(3-(Cyanomethyl)-2,5-dioxo-1-(3-(trifluoromethyl)phenyl)-2,3,4,5,6,7-hexahydro-1H-cyclopenta[d]pyrimidin-4-yl)-3-(methylsulfonyl)benzonitrile] | 0 | 15 (≈ 29.2 µM) | > 130 | 10.3 | 93.5 | 3.4 | 9.1 | < 1 | – |
| CN1C(=O)N(c2cccc(C(F)(F)F)c2)C2=C(C(=O)CC2)[C@H]1c1ccc(C#N)cc1S(C)(=O)=O [Example 25, (S)-4-(3-Methyl-2,5-dioxo-1-(3-(trifluoromethyl)phenyl)-2,3,4,5,6,7-hexahydro-1H-cyclopenta[d]pyrimidin-4-yl)-3-(methylsulfonyl)benzonitrile] | 2 | 62 (≈ 127 µM) | > 130 | 56.7 | 74 | < 1 | 1.3 | 1 | – |
| N#Cc1ccc(C2C3=C(CCC3=O)N(c3cccc(C(F)(F)F)c3)C(=O)N2C(=O)NC2(CO)CC2)cc1 (stereo not shown) [Example 41.5] | – | – | – | – | – | – | – | – | Aqueous solubility [1]: 0.082 mg/mL; PEAB [4]: 0.00000885 cm/s; PEBA [4]: 0.000077 cm/s; Efflux ratio [4]: 8.7 |
| N#Cc1ccc(C2C3=C(CCC3=O)N(c3cccc(C(F)(F)F)c3)C(=O)N2C(=O)NC2CCOCC2)cc1 (stereo not shown) [Example 41.16] | – | – | – | – | – | – | – | – | t1/2 INVITRO [2]: >130 min; PEAB [4]: 0.0000589 cm/s; PEBA [4]: 0.0000577 cm/s; Efflux ratio [4]: 1.0 |
| CC(C)NC(=O)N1C(=O)N(c2cccc(C(F)(F)F)c2)C2=C(C(=O)CC2)[C@H]1c1ccc(C#N)cc1S(C)(=O)=O [Example 47.5] | – | 16 (≈ 28.5 µM) | > 130 | 19.2 | 86.7 | < 1 | – | 1 | – |
| CS(=O)(=O)CCNC(=O)N1C(=O)N(c2cccc(C(F)(F)F)c2)C2=C(C(=O)CC2)C1c1ccc(C#N)cc1F (stereo not shown) [Example 49.3] | 0 | 32 (≈ 56.7 µM) | > 130 | – | – | – | – | – | – |
| CC(C)(O)CNC(=O)N1C(=O)N(c2cccc(C(F)F)c2)C2=C(C(=O)CC2)C1c1ccc(C#N)cc1 (stereo not shown) [Example 52.5] | – | 70 (≈ 142 µM) | > 130 | 4.45 | 62.7 | < 1 | 14.1 | 1 | – |
| N#Cc1ccc([C@@H]2C3=C(CCC3=O)N(c3cccc(C(F)F)c3)C(=O)N2C(=O)NCCCO)cc1 [Example 52A, (R)-4-(4-Cyanophenyl)-1-(3-(difluoromethyl)phenyl)-N-(3-hydroxypropyl)-2,5-dioxo-4,5,6,7-tetrahydro-1H-cyclopenta[d]pyrimidine-3(2H)-carboxamide] | 8 | 88 (≈ 183 µM) | > 130 | – | – | < 1 | – | < 1 | – |
| CS(=O)(=O)c1cc(C#N)ccc1C1C2=C(CCC2=O)N(c2cccc(C(F)F)c2)C(=O)N1C(=O)NC1CC1 (stereo not shown) [Example 53.3] | 0 | 34 (≈ 62.9 µM) | – | – | – | – | – | – | – |
| CC(C)NC(=O)N1C(=O)N(c2cccc(C(F)F)c2)C2=C(C(=O)CC2)C1c1ccc(C#N)cc1S(C)(=O)=O (stereo not shown) [Example 53.4] | 0 | 14 (≈ 25.8 µM) | > 130 | 9.85 | 94.4 | – | – | – | – |

The next lines start with results.

| CL (predicted human hepatic in vivo blood clearance) [6] [mL/min/kg] | solubility at 24 h [1] [µg/mL] | half-life at 1 μM [2] [min] | Papp A→B at 10 µM [7] [×10⁻⁶ cm/s] | Papp B→A at 10 µM [7] [×10⁻⁶ cm/s] | IC50 [3, 8] [nM] | efflux ratio at 10 μM [7] | EC50 [5, 9] [nM] | Structure (SMILES) | other results |
| --- | --- | --- | --- | --- | --- | --- | --- | --- | --- |
| 6 | – | – | – | – | – | – | – | CN(C)C(=O)CN1C(=O)N(c2cccc(C(F)(F)F)c2)C2=C(C(=O)CC2)C1c1ccc(C#N)cc1 (stereo not shown) [Example 6.2] | Aqueous solubility [1]: 0.077 mg/mL |
| 4 | – | – | – | – | – | – | – | N#Cc1ccc(C2C3=C(CCC3=O)N(c3cccc(C(F)(F)F)c3)C(=O)N2CC(=O)N2CCC2)cc1 (stereo not shown) [Example 6.3] | Aqueous solubility [1]: 0.121 mg/mL; t1/2 INVITRO [2]: >130 min |
| 3 | 23 (≈ 50.6 µM) | > 130 | 72.7 | 68.1 | – | – | – | CNC(=O)N1C(=O)N(c2cccc(C(F)(F)F)c2)C2=C(C(=O)CC2)[C@H]1c1ccc(C#N)cc1 [Example 7.1A, (R)-4-(4-Cyanophenyl)-N-methyl-2,5-dioxo-1-(3-(trifluoromethyl)phenyl)-4,5,6,7-tetrahydro-1H-cyclopenta[d]pyrimidine-3(2H)-carboxamide] | – |
| 0 | 72 (≈ 149 µM) | > 130 | 4.03 | 63.3 | – | – | – | N#Cc1ccc([C@@H]2C3=C(CCC3=O)N(c3cccc(C(F)(F)F)c3)C(=O)N2C(=O)NCCO)cc1 [Example 7.2A, (R)-4-(4-Cyanophenyl)-N-(2-hydroxyethyl)-2,5-dioxo-1-(3-(trifluoromethyl)phenyl)-4,5,6,7-tetrahydro-1H-cyclopenta[d]pyrimidine-3(2H)-carboxamide] | – |
| 0 | 21 (≈ 40 µM) | > 130 | 39.7 | 78 | – | 2 | – | N#Cc1ccc(C2C3=C(CCC3=O)N(c3cccc(C(F)(F)F)c3)C(=O)N2C(=O)N[C@H]2CCC[C@@H]2O)cc1 (stereo partly shown) [Example 42.4] | – |
| 5 | 67 (≈ 127 µM) | – | – | – | – | – | – | N#Cc1ccc(C2C3=C(CCC3=O)N(c3cccc(C(F)(F)F)c3)C(=O)N2C(=O)N[C@H]2COC[C@H]2O)cc1 (stereo partly shown) [Example 42.6] | – |
| 0 | 56 (≈ 106 µM) | > 130 | – | – | – | – | – | N#Cc1ccc([C@@H]2C3=C(CCC3=O)N(c3cccc(C(F)(F)F)c3)C(=O)N2C(=O)N[C@H]2COC[C@@H]2O)cc1 [Example 45.5] | – |
| 1 | 41 (≈ 90 µM) | – | 66.7 | 66.1 | 4 | 1 | 16 | CNC(=O)N1C(=O)N(c2cccc(C(F)(F)F)c2)C2=C(C(=O)CC2)C1c1ccc(C#N)cn1 (stereo not shown) [Example 50.1] | – |
| – | 41 (≈ 93.9 µM) | > 130 | 57.1 | 58.3 | 1.1 | 1 | < 1 | CNC(=O)N1C(=O)N(c2cccc(C(F)F)c2)C2=C(C(=O)CC2)C1c1ccc(C#N)cc1 (stereo not shown) [Example 52.1] | – |
| 3 | 16 (≈ 35.5 µM) | > 130 | 70.8 | 80.3 | < 1 | 1.1 | 1 | CCNC(=O)N1C(=O)N(c2cccc(C(F)F)c2)C2=C(C(=O)CC2)C1c1ccc(C#N)cc1 (stereo not shown) [Example 52.2] | – |
